What is called mortality is the percentage killed. Low readings indicate a weak lethal effect, high ones a strong lethal effect.

Common to all, as to type: in vivo
For test [1], the system named is Chilo suppressalis. Nature of the test: Insecticidal activity against Chilo suppressalis, spraying of rice seedlings. The note with it: 72 h, 3rd instar larvae, 3 days after administration; for mortality at 0.625 µg/mL: 0.625 mg/L; for mortality at 2.5 µg/mL: 2.5 mg/L; for mortality at 10 µg/mL: 10 mg/L. On the procedure:
(§1) The compound to be determined was dissolved in a mixed solvent of acetone/methanol (1:1), followed by dilution with water containing 0.1% (wt) Tween 80 to a desired concentration.
(§2) The activities of the respective compounds against Leucania separata, Plutella xylostella, and Chilo suppressalis were determined by Airbrush spraying method.
The determination method was as follows: 1) Preparation of rice seedlings: rice plants were cultivated in a plastic cup with a diameter of 4.5 cm and a height of 4 cm in a thermostatic chamber (temperature 26-28° C., relative humidity 60-80%, illumination 16 hL: 8 hD), and when the rice plants were developed to have 4-5 leaves, strong seedlings with identical growth vigour were selected for chemical treatment, and each treatment was replicated 3 times. 2) Preparation of insects to be tested: Chilo suppressalis, 3rd instar larvae, continuous lab rearing. 3) Inoculation of insects by spraying rice plant stems: The whole rice seedlings were sprayed evenly by using the spraying method, with 15 mL of the compound solution for each treatment. Firstly, the blank control was treated, and then the above procedure was replicated according to the order of test concentration from low to high. After rice seedlings were spray-treated, they were placed in the shade to dry, and the stems about 5 cm from the stem bases were cut off to feed the insects to be tested. Glass culture dishes with a diameter of 90 mm were prepared; each dish was padded with a filter paper at the bottom and added with water to keep moisture; about 5 rice stems were put into each dish and inoculated with 10 larvae, and each culture dish was then sealed with a non-woven and cultured in a thermostatic chamber. The number of residual live insects was examined 3 days after administration.

Test [2] concerns Tetranychus cinnabarinus. The test can be described thus: Acaricidal activity against Tetranychus cinnabarinus in greenhouse, bean seedling spraying. The note with it: adult mites, 3 days (72 hours) after treatment; for mortality at 0.625 µg/mL: 0.625 mg/L; for mortality at 1.25 µg/mL: 1.25 mg/L; for mortality at 2.5 µg/mL: 2.5 mg/L; for mortality at 5 µg/mL: 5 mg/L. On the procedure:
The compounds of the invention were determined for the acaricidal activity in greenhouse. The determination method was as follows:
A bean seedling with two true leaves was taken for inoculating 30-40 adult mites of Tetranychus cinnabarinus. After examining the cardinal number, the whole seedling was treated by spraying with a hand-held sprayer, each treatment being replicated 3 times, and then placed in a standard observation room. The number of surviving mites was examined after 72 hours, and the mortality was calculated.

The test system of test [3] is Leucania separata. Nature of the test: Insecticidal activity against Leucania separata, Airbrush spraying of corn leaf segments. The note with it: Mythimna separata, foliar, 72 h, 3rd instar larvae, 3 days after administration; for mortality at 1.25 µg/mL: 1.25 mg/L; for mortality at 2.5 µg/mL: 2.5 mg/L; for mortality at 5 µg/mL: 5 mg/L; for mortality at 10 µg/mL: 10 mg/L. On the procedure: as §1, §2
(§3) The determination method was as follows: Corn leaves were cut into 2 cm long segments; the pressure of Airbrush spraying was 10 psi (about 0.7 kg/cm^2); both sides of each leaf segment were sprayed with 0.5 mL of the compound solution to be tested. After drying in the shade, ten 3rd instar larvae were inoculated for each treatment, and each treatment was replicated 3 times. After treatment, they were cultured in an observation room at a temperature of 25° C. and a relative humidity of 60-70%, and the number of surviving insects was examined and the mortality was calculated three days after administration.

Test [4] has as its system Plutella xylostella. The test can be described thus: Insecticidal activity against Plutella xylostella, Airbrush spraying of cabbage leaf discs. The note with it: foliar, 72 h, 3rd instar larvae, 3 days after administration; for mortality at 2.5 µg/mL: 2.5 mg/L; for mortality at 5 µg/mL: 5 mg/L; for mortality at 10 µg/mL: 10 mg/L. On the procedure: as §1, §2
as §3, with “Cabbage” for “Corn”, “made” for “cut”, “into leaf discs with a diameter of” for “into”, “by using a hole puncher;” for “long segments;”, “disc” for “segment”

In test [1], `CCN1OC[C@@H](N(C(=O)c2ccc(C3=NOC(c4cc(Cl)c(F)c(Cl)c4)(C(F)(F)F)C3)cc2C)C(=O)C2CC2)C1=O` (mixture of isomers) [Compound 120] gave a mortality at 0.625 µg/mL of 96.7%, a mortality at 2.5 µg/mL of 100% and a mortality at 10 µg/mL of 100%. In test [2], this molecule showed a mortality at 0.625 µg/mL of 100%, a mortality at 1.25 µg/mL of 100%, a mortality at 2.5 µg/mL of 100% and a mortality at 5 µg/mL of 100%. In addition, in test [3], the mortality at 1.25 µg/mL came to 100%, the mortality at 2.5 µg/mL worked out at 100%, the mortality at 5 µg/mL is 100% and the mortality at 10 µg/mL stood at 100%. In addition, in test [4], the mortality at 2.5 µg/mL is 83.3%, the mortality at 5 µg/mL came out at 100% and the mortality at 10 µg/mL was 100%.

In test [1], `CCN1OC[C@@H](N(C(=O)COC)C(=O)c2ccc(C3=NOC(c4cc(Cl)c(F)c(Cl)c4)(C(F)(F)F)C3)cc2C)C1=O` (mixture of isomers) [Compound 121] came in with a mortality at 0.625 µg/mL of 90%, a mortality at 2.5 µg/mL of 100% and a mortality at 10 µg/mL of 100%. In test [2], this molecule displayed a mortality at 0.625 µg/mL of 100%, a mortality at 1.25 µg/mL of 100%, a mortality at 2.5 µg/mL of 100% and a mortality at 5 µg/mL of 100%. In test [3], this molecule came in with a mortality at 1.25 µg/mL of 100%, a mortality at 2.5 µg/mL of 100%, a mortality at 5 µg/mL of 100% and a mortality at 10 µg/mL of 100%. In test [4], this molecule returned a mortality at 2.5 µg/mL of 86.7%, a mortality at 5 µg/mL of 100% and a mortality at 10 µg/mL of 100%.

In test [1], `CCOCC(=O)N(C(=O)c1ccc(C2=NOC(c3cc(Cl)cc(Cl)c3)(C(F)(F)F)C2)cc1C)[C@@H]1CON(CC)C1=O` (mixture of isomers) [Compound 114] yielded a mortality at 0.625 µg/mL of 83.3%, a mortality at 2.5 µg/mL of 100% and a mortality at 10 µg/mL of 100%. In test [2], this molecule registered a mortality at 0.625 µg/mL of 100%, a mortality at 1.25 µg/mL of 100%, a mortality at 2.5 µg/mL of 100% and a mortality at 5 µg/mL of 100%. In test [3], this molecule displayed a mortality at 1.25 µg/mL of 100%, a mortality at 2.5 µg/mL of 100%, a mortality at 5 µg/mL of 100% and a mortality at 10 µg/mL of 100%. In test [4], this molecule registered a mortality at 2.5 µg/mL of 60%, a mortality at 5 µg/mL of 86.7% and a mortality at 10 µg/mL of 100%.

In test [1], `CCN1OC[C@@H](N(C(C)=O)C(=O)c2ccc(C3=NOC(c4cc(Cl)cc(Cl)c4)(C(F)(F)F)C3)cc2C)C1=O` (mixture of isomers) [Compound 109] came in with a mortality at 0.625 µg/mL of 80%, a mortality at 2.5 µg/mL of 100% and a mortality at 10 µg/mL of 100%. Besides, in test [2], the mortality at 0.625 µg/mL amounted to 16.7%, the mortality at 1.25 µg/mL came to 70%, the mortality at 2.5 µg/mL is 100% and the mortality at 5 µg/mL is 100%. In test [3], this molecule had a mortality at 1.25 µg/mL of 26.7%, a mortality at 2.5 µg/mL of 63.3%, a mortality at 5 µg/mL of 83.3% and a mortality at 10 µg/mL of 100%. In test [4], this molecule registered a mortality at 5 µg/mL of 70% and a mortality at 10 µg/mL of 100%.

In test [1], `CCOCC(=O)N(C(=O)c1ccc(C2=NOC(c3cc(Cl)c(F)c(Cl)c3)(C(F)(F)F)C2)cc1C)[C@@H]1CON(CC)C1=O` (mixture of isomers) [Compound 122] gave a mortality at 0.625 µg/mL of 93.3%, a mortality at 2.5 µg/mL of 100% and a mortality at 10 µg/mL of 100%. Besides, in test [2], the mortality at 0.625 µg/mL worked out at 100%, the mortality at 1.25 µg/mL is 100%, the mortality at 2.5 µg/mL is 100% and the mortality at 5 µg/mL was 100%. In test [3], the mortality at 1.25 µg/mL is 100%, the mortality at 2.5 µg/mL was 100%, the mortality at 5 µg/mL is 100% and the mortality at 10 µg/mL stood at 100%. Besides, in test [4], the mortality at 2.5 µg/mL is 70%, the mortality at 5 µg/mL was 100% and the mortality at 10 µg/mL is 100%.

Turning to `CCN1OC[C@@H](N(C(=O)COC)C(=O)c2ccc(C3=NOC(c4cc(Cl)cc(Cl)c4)(C(F)(F)F)C3)cc2C)C1=O` (mixture of isomers) [Compound 113], in test [1], the mortality at 0.625 µg/mL is 86.7%, the mortality at 2.5 µg/mL is 100% and the mortality at 10 µg/mL came out at 100%. In test [2], this molecule gave a mortality at 0.625 µg/mL of 100%, a mortality at 1.25 µg/mL of 100%, a mortality at 2.5 µg/mL of 100% and a mortality at 5 µg/mL of 100%. In test [3], this molecule gave a mortality at 1.25 µg/mL of 100%, a mortality at 2.5 µg/mL of 100%, a mortality at 5 µg/mL of 100% and a mortality at 10 µg/mL of 100%. Further, in test [4], the mortality at 2.5 µg/mL worked out at 66.7%, the mortality at 5 µg/mL was determined as 90% and the mortality at 10 µg/mL worked out at 100%.

For `CCN1OC[C@@H](N(C(=O)OC)C(=O)c2ccc(C3=NOC(c4cc(Cl)cc(Cl)c4)(C(F)(F)F)C3)cc2C)C1=O` (stereo partly shown) [Comparative compound, reference compound], in test [1], the mortality at 0.625 µg/mL was determined as 0%, the mortality at 2.5 µg/mL turned out to be 0% and the mortality at 10 µg/mL came out at 16.7%. In test [2], this molecule yielded a mortality at 1.25 µg/mL of 20%, a mortality at 2.5 µg/mL of 73.3% and a mortality at 5 µg/mL of 100%. For the same molecule, in test [3], the mortality at 1.25 µg/mL was 0%, the mortality at 2.5 µg/mL turned out to be 0%, the mortality at 5 µg/mL came out at 13.3% and the mortality at 10 µg/mL was 73.3%. Moreover, in test [4], the mortality at 2.5 µg/mL amounted to 0%, the mortality at 5 µg/mL stood at 30% and the mortality at 10 µg/mL stood at 76.7%.

As to `CCN1OC[C@@H](N(C(=O)c2ccc(C3=NOC(c4cc(Cl)cc(Cl)c4)(C(F)(F)F)C3)cc2C)C(=O)C2CC2)C1=O` (mixture of isomers) [Compound 112], in test [1], the mortality at 0.625 µg/mL came to 96.7%, the mortality at 2.5 µg/mL turned out to be 100% and the mortality at 10 µg/mL is 100%. In test [2], the mortality at 0.625 µg/mL turned out to be 96.7%, the mortality at 1.25 µg/mL worked out at 100%, the mortality at 2.5 µg/mL came out at 100% and the mortality at 5 µg/mL came to 100%. In test [3], this molecule displayed a mortality at 1.25 µg/mL of 80%, a mortality at 2.5 µg/mL of 96.7%, a mortality at 5 µg/mL of 100% and a mortality at 10 µg/mL of 100%. In addition, in test [4], the mortality at 5 µg/mL was found to be 70% and the mortality at 10 µg/mL was determined as 100%.

(Values after patent US12312319B2, “Isoxazoline compounds, their preparation methods and use” (METISA BIOTECHNOLOGY CO., LTD, priority 2019, dated 2025).)
